Data: patent US10039759B2, “Quinolines as FGFR kinase modulators” (priority 2011, dated 2018)
Read-outs that look alike come from different tables or passages of the source.

What was measured:
FGFR3 (h) = FGFR3 (h) (Homo sapiens, UniProt P22607); assay: FGFR3 (enzymatic assay), TR-FRET; assay type: biochemical; details: 60 min, pIC50 = -log IC50 (M), average if tested multiple times
[1] = biological target: T1, Ba/F3-FGFR3-transfected cells (Homo sapiens, UniProt P22607, cells depend on it, form not given); assay: Ba/F3-FGFR3 (minus IL3 or plus IL3) cellular proliferation assay, Alamar Blue; assay type: cell-based; details: minus IL3; 24 hours, Alamar Blue
T1 construct: BAF3-FGFR3 (MIN IL3 Alamar Blue- pIC50); other: minus IL3; 24 hours, Alamar Blue
T1 sequence (P22607 whole entry, change not shown): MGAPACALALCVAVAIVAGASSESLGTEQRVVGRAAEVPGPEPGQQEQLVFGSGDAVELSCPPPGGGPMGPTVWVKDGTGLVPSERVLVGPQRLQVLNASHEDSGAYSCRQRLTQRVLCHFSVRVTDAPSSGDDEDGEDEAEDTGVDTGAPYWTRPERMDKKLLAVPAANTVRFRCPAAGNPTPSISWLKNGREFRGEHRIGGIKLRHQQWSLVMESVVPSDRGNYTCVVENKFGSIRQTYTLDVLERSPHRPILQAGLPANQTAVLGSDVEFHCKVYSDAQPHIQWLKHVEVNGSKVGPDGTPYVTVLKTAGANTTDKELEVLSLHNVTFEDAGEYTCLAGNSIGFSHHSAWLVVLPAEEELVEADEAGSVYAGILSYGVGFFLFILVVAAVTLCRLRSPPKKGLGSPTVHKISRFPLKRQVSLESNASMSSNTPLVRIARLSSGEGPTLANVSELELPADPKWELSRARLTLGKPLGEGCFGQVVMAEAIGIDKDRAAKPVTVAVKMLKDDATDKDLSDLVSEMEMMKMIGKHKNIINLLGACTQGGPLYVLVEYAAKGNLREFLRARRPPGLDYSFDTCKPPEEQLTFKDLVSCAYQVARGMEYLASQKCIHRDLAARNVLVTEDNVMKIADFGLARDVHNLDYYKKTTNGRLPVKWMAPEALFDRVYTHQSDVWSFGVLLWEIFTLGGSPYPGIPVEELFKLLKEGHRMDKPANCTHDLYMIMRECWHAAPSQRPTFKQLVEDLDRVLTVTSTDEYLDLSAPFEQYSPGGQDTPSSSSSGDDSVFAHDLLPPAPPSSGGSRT
How it was run: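 Ba/F3-FGFR3 cells (20000 per well) in phenol red-free RPMI-1640 with 10% FBS were exposed to compound (10 μM to 0.1 nM) for 24 h at 37° C. Alamar Blue was then added for 4 h and fluorescence read (ex 540, em 590 nm) to give IC50/pIC50; the counterscreen was run with 10 ng/ml murine IL3.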

[2] = biological target: Ba/F3-FGFR4-transfected cells (Homo sapiens, UniProt P22455); assay: Ba/F3-FGFR4 cellular proliferation assay, Alamar Blue; assay type: cell-based; details: 24 hours
Sequence of Ba/F3-FGFR4-transfected cells (P22455 whole entry, change not shown): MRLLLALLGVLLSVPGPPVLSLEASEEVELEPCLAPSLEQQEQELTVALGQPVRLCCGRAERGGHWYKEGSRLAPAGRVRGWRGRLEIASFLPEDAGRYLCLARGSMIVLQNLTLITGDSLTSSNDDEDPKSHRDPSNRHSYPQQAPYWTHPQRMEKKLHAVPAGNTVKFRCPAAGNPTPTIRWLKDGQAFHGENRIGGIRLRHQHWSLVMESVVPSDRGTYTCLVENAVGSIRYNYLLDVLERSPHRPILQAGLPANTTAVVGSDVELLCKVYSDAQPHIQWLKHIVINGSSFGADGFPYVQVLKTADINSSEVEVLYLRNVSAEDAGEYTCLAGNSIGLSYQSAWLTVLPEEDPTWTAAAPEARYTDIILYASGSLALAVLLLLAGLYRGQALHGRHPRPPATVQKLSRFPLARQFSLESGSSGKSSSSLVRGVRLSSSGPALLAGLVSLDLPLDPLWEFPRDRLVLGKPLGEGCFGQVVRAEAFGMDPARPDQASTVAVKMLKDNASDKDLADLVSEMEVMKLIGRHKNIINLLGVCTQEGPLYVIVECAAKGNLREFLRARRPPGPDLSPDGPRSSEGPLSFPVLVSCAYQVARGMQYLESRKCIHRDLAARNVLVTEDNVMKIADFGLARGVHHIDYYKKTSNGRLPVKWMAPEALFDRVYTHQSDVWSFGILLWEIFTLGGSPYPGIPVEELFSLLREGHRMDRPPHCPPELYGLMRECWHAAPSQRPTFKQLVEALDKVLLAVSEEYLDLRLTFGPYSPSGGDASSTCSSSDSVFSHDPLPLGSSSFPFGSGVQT
How it was run: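 Ba/F3 cells transfected with human FGFR4, 20000 per well in phenol red-free RPMI-1640 with 10% FBS, exposed to compound (10 μM to 0.1 nM) for 24 h at 37 °C. Viability by Alamar Blue (resazurin), 4 h, fluorescence ex 540/em 590 nm; IC50 and pIC50 calculated.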

[3] = biological target: T2, Ba/F3-KDR-transfected cells (Homo sapiens, UniProt P35968, cells depend on it, form not given); assay: Ba/F3-KDR (minus IL3 or plus IL3) cellular proliferation assay, Alamar Blue; assay type: cell-based; details: minus IL3; 24 hours, Alamar Blue
T2 construct: BAF3-KDR (MIN IL3 Alamar Blue pIC50); other: minus IL3; 24 hours, Alamar Blue
How it was run: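 Ba/F3-KDR cells, 20000 per well, exposed to compounds (10 μM to 0.1 nM) for 24 h at 37°C in RPMI/10% FBS, then Alamar Blue for 4 h; fluorescence ex 540/em 590 nm gives IC50 and pIC50. Counterscreen run with 10 ng/ml murine IL3.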

[4] = biological target: T3, Ba/F3-FGFR1-transfected cells (Homo sapiens, UniProt P11362, cells depend on it, form not given); assay: Ba/F3-FGFR1 (minus IL3 or plus IL3) cellular proliferation assay, Alamar Blue; assay type: cell-based; details: minus IL3, 24 hours
T3 construct: other: minus IL3; 24 hours, Alamar Blue
T3 sequence (P11362 whole entry, change not shown): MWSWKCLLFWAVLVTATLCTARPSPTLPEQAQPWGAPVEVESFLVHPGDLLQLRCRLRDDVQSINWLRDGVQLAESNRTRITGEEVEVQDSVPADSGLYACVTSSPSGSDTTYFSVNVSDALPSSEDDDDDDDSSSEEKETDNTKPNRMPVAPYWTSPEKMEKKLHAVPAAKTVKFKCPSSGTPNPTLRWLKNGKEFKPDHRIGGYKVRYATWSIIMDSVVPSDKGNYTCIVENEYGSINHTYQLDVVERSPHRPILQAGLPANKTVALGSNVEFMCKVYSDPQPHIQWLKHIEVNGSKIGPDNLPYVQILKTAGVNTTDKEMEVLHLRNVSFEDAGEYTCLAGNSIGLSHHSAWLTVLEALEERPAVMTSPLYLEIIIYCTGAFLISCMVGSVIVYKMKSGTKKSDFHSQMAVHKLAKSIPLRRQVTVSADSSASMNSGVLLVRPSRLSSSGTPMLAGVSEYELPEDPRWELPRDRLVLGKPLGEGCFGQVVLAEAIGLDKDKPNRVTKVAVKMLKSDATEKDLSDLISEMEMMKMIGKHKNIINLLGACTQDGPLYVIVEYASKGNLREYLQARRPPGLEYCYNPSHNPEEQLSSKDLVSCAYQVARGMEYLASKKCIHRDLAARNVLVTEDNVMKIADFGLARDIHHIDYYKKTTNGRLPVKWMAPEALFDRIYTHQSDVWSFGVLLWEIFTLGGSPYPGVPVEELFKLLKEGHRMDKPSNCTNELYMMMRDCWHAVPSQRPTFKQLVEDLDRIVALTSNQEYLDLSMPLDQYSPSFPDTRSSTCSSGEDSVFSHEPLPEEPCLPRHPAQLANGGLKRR
How it was run: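 Ba/F3-FGFR1 cells (20000/well) were treated with compound (10 μM–0.1 nM) for 24 h at 37 °C. Alamar Blue was then added for 4 h, with fluorescence read at ex 540/em 590 nm to give IC50/pIC50. A counterscreen was run with 10 ng/ml murine IL3.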

FGFR4 (h) = FGFR4 (h) (Homo sapiens, UniProt P22455); assay: FGFR4 (enzymatic assay), TR-FRET; assay type: biochemical; details: FGFR 4 pIC50, 5 μM ATP, 60 min; pIC50 = -log IC50 (M); average if tested multiple times
Sequence of FGFR4 (h) (P22455 22-802): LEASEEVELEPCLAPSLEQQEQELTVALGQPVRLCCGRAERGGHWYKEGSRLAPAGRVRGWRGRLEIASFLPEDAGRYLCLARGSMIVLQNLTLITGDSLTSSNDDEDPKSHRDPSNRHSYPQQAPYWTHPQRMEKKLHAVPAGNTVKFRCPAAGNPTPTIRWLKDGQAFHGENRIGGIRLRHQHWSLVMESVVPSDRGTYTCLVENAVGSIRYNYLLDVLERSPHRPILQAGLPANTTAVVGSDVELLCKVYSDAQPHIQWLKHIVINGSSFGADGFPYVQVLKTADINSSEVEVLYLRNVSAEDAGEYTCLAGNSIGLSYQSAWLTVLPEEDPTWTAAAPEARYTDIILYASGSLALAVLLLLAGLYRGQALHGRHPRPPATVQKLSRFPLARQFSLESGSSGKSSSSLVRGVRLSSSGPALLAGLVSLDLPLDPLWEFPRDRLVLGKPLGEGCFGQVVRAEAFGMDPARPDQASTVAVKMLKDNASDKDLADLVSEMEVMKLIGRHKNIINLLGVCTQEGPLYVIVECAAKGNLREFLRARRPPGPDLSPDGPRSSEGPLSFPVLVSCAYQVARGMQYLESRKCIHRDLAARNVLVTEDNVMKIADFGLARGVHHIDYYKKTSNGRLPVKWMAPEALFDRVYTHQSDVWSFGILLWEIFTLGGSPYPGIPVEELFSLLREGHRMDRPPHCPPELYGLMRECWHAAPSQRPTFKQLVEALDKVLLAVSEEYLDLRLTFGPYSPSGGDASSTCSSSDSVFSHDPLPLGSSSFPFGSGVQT

FGFR2 (h) = FGFR2 (h) (Homo sapiens, UniProt P21802); assay: FGFR2 (enzymatic assay), TR-FRET; assay type: biochemical; details: 0.4 μM ATP, 60 min; pIC50 = -log IC50 (M); average if tested multiple times; read-out: FGFR 2 pIC50 (converted)
Sequence of FGFR2 (h) (P21802 22-821): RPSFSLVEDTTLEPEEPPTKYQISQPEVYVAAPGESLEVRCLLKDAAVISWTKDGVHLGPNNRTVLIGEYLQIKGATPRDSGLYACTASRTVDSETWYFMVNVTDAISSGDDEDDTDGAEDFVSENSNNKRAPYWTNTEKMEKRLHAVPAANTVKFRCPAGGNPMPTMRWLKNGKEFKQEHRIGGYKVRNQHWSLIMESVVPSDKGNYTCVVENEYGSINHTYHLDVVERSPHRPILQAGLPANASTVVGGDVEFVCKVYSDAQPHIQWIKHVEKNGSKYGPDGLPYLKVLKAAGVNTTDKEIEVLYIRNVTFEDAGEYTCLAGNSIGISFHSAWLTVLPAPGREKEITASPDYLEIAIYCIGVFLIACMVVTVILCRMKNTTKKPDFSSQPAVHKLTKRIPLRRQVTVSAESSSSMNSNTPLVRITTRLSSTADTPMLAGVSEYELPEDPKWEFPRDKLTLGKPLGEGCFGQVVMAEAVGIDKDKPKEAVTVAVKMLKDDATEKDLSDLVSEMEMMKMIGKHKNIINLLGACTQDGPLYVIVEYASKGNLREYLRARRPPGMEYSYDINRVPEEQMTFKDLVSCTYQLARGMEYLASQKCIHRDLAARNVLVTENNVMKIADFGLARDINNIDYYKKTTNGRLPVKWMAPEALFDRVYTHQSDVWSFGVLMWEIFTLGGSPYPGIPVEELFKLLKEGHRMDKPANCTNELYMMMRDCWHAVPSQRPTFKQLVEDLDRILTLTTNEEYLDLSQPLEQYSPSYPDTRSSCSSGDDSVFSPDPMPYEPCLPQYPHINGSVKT

[5] = 25 μM ATP, read-out: hFGFR 3 pIC50 (converted)

Sequence of FGFR3 (h) (P22607 23-806): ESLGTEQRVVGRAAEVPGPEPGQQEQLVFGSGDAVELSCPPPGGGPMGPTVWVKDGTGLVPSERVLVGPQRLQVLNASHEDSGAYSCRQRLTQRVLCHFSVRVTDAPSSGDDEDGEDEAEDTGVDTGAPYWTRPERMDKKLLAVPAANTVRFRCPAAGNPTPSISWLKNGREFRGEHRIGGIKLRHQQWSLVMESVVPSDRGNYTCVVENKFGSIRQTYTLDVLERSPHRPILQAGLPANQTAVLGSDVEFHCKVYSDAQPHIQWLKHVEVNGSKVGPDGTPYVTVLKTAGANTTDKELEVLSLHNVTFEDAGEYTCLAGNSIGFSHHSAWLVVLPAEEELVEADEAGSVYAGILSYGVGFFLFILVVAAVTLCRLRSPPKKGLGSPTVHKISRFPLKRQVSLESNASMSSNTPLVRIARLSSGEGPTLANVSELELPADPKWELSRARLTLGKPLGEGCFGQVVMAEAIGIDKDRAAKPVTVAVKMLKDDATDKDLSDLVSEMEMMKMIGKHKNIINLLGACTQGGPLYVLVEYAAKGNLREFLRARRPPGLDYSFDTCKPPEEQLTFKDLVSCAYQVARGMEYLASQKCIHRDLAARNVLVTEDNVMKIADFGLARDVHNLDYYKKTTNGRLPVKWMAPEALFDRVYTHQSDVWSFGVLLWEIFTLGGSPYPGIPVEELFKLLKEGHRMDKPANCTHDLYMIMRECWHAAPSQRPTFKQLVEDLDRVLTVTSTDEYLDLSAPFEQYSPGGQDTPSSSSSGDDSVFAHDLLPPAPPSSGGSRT

| BAF3-FGFR3 (MIN IL3 Alamar Blue- pIC50) [1] | BAF3-FGFR 4 (pIC50) [2] | BAF3-KDR (MIN IL3 Alamar Blue pIC50) [3] | BAF3-FGFR1 (MIN IL3 pIC50) [4] | IC50 (FGFR4 (h)) | IC50 (FGFR2 (h)) | IC50 (FGFR3 (h); [5]) | Structure (SMILES) | IC50 (FGFR3 (h); hFGFR 3 pIC50, 25 μM ATP) |
| --- | --- | --- | --- | --- | --- | --- | --- | --- |
| 7.63 | 6.98 | <5 | 7.35 | 2.75e-07 M | 1.2e-07 M | 5.89e-08 M | COc1cc(OC)cc(N(CC#Cc2ncccc2OC)c2ccc3ncc(-c4cnn(C)c4)cc3c2)c1 [Compound 17] | – |
| 6.17 | 5.87 | 5.45 | 6.26 | 3.09e-08 M | 1.35e-08 M | 5.89e-09 M | COc1cc(OC)cc(N(CCCO)c2ccc3ncc(-c4cnn(C)c4)cc3c2)c1 [Compound 4] | – |
| 5.22 | <5 | <5 | 5.37 | 2.51e-07 M | 1.95e-08 M | 3.16e-08 M | COc1cc(OC)cc(N(Cc2nccn2S(=O)(=O)N(C)C)c2ccc3ncc(-c4cccnc4)cc3c2)c1 [Compound 60] | – |
| <5 | <5 | <5 | <5 | > 1e-06 M | > 1e-06 M | 9.12e-07 M | COc1cc(OC)cc(N(CC2CCN(c3nccc(OC)n3)C2)c2ccc3ncc(-c4cnn(C)c4)cc3c2)c1 (stereo not drawn) [Compound 7] | – |
| >8 | 8.21 | <5 | >8 | 3.72e-08 M | 1.55e-08 M | 1.35e-08 M | COc1cc(OC)cc(N(CC#Cc2nccc(OC)n2)c2ccc3ncc(-c4cnn(C)c4)cc3c2)c1 [Compound 16] | – |
| 5.79 | 5.4 | 5.07 | 5.7 | 1.51e-07 M | 3.02e-08 M | 1.35e-08 M | C#CCN(c1cc(OC)cc(OC)c1)c1ccc2ncc(-c3cnn(C)c3)cc2c1 [Compound 6] | – |
| 6.17 | 5.18 | <5 | 6.14 | 1.45e-07 M | 7.76e-09 M | 1.1e-08 M | COc1cc(OC)cc(N(Cc2nccn2S(=O)(=O)N(C)C)c2ccc3ncc(-c4cnn(C)c4)cc3c2)c1 [Compound 9] | – |
| 8.22 | 8.18 | 5.335 | 8.715 | 3.13e-09 M | 5.62e-09 M | 2.37e-09 M | COc1cccnc1C#CCN(c1ccc2ncc(-c3cnn(C)c3)cc2c1)c1c(F)c(OC)cc(OC)c1F [Compound 27] | – |

Continued, molecule first:

| Structure (SMILES) | BAF3-FGFR3 (MIN IL3 Alamar Blue- pIC50) [1] | BAF3-FGFR 4 (pIC50) [2] | BAF3-KDR (MIN IL3 Alamar Blue pIC50) [3] | BAF3-FGFR1 (MIN IL3 pIC50) [4] | IC50 (FGFR4 (h)) | IC50 (FGFR2 (h)) | IC50 (FGFR3 (h); [5]) | IC50 (FGFR3 (h); hFGFR 3 pIC50, 25 μM ATP) |
| --- | --- | --- | --- | --- | --- | --- | --- | --- |
| COc1cc(OC)c(F)c(N(CC#Cc2ncccc2OC)c2ccc3ncc(-c4cnn(C)c4)cc3c2)c1 [Compound 26] | 8.17 | 7.77 | 5.11 | 7.95 | 1.26e-08 M | 1.05e-08 M | – | 4.9e-09 M |
| COc1cc(OC)c(F)c(N(CCNC(C)C)c2ccc3ncc(-c4cnn(C)c4)cc3c2)c1 [Compound 2] | 7.86 | 7.83 | 6.18 | 8.3 | 3.98e-09 M | 3.24e-09 M | – | 3.89e-09 M |
| COc1cc(Nc2ccc3ncc(-c4cnn(C5CCCCO5)c4)cc3c2)cc(OC)c1 (stereo not drawn) [Int. 8] | ~5.53 | 5.04 | <5 | 5.29 | 4.9e-07 M | 3.72e-08 M | 3.72e-08 M | – |
| COc1cc(OC)cc(N(CCO)c2ccc3ncc(-c4cnn(C)c4)cc3c2)c1 [Compound 3] | 6.33 | 6.11 | 5.65 | 6.31 | 3.8e-08 M | 1.48e-08 M | 4.17e-09 M | – |
| COc1cc(OC)cc(N(CCNC(C)C)c2ccc3ncc(-c4cn[nH]c4)cc3c2)c1 [Compound 21] | 7.57 | 6.79 | 5.49 | 7.55 | 5.37e-09 M | 2.57e-09 M | 3.39e-09 M | – |
| COc1cc(OC)cc(N(CC(O)C(F)(F)F)c2ccc3ncc(-c4cnn(C)c4)cc3c2)c1 (single isomer, unassigned) [Compound 24] | ~7.67 | 6.6 | 5.05 | 7.73 | 7.94e-09 M | 4.9e-09 M | ~1.1e-09 M | – |
| COc1cc(OC)cc(N(CCCN2CCCC2CNS(=O)(=O)C(F)(F)F)c2ccc3ncc(-c4cnn(C)c4)cc3c2)c1 (stereo not drawn) [Compound 47] | 8.46 | 7.44 | 6.44 | ~8.03 | 2.19e-09 M | 3.89e-09 M | 1.32e-09 M | – |
| COc1cc(OC)cc(N(CC#Cc2nccn2C)c2ccc3ncc(-c4cnn(C)c4)cc3c2)c1 [Compound 48] | 7.62 | 7.17 | 5.02 | 7.24 | 3.16e-08 M | 1.45e-08 M | 7.94e-09 M | – |
| COc1cc(OC)cc(N(Cc2ncc[nH]2)c2ccc3ncc(-c4cnn(C)c4)cc3c2)c1 [Compound 18] | 7.22 | 6.57 | 5.01 | 6.88 | 4.79e-09 M | 2.51e-09 M | 1.26e-09 M | – |
| COc1cc(OC)cc(N(CCNC(C)C)c2ccc3ncc(-c4cnn(C)c4)cc3c2)c1 [Compound 1] | 7.555 | 7.19 | 5.635 | 7.4 | 1.38e-08 M | 4.95e-09 M | 7.94e-09 M | – |
